Source: patent US12421191B2, “3-hydroxyoxindole derivatives as CRHR2 antagonist” (RaQualia Pharma Inc., priority 2020, dated 2025)

Target: T1, human CRHR2-alpha (Homo sapiens, UniProt Q13324)
T1 construct: host or cells: CHO-K1
T1 sequence (Q13324 1-411): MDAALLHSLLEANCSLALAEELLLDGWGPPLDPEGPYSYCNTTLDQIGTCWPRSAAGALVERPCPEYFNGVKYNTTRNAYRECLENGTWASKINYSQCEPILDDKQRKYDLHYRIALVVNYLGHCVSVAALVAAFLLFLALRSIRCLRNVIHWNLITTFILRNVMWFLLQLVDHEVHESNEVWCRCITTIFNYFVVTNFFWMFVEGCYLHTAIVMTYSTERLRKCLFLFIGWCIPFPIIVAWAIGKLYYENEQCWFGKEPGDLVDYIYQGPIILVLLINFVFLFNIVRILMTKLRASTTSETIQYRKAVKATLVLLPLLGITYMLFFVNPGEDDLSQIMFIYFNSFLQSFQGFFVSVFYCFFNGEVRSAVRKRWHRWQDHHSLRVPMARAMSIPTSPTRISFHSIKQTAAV
Test: cAMP functional assay for human CRHR2 (LANCE Ultra TR-FRET)
Type: cell-based
Conditions: inhibition of cAMP production in CHO-K1 cells stably expressing human CRHR2-alpha, EC90 of human urocortin2 as agonist; read-out: IC50 against CRHR2
Procedure: cAMP functional assay for human CRHR2 The ability of the compounds of this invention to inhibit either CRHR2 is assessed by 3′,5′-cyclic adenosine monophosphate (cAMP) production in cells using the LANCE Ultra cAMP assay kit (ParkinElmer), which are designed based on the homogeneous time-resolved fluorescence resonance energy transfer (TR-FRET) immunoassay.
CHO-K1 (Chinese hamster ovary) cells stably expressing human CRHR2-alpha (DiscoveRX, Cat. 95-0048C2) are grown in HAM's F12 media supplemented with 10% fetal bovine serum (FBS), 100 units/mL penicillin G, 100 microg/mL hygromycin and 0.5 microg/mL geneticin at 37° C. in 5% CO2 humidified incubator to 80% confluence. After 7 hours starvation treatment in culture media containing 0.1% FBS, the cells are washed with Hanks balanced salt solution (HBSS) and cryopreserved.
For cAMP assay, frozen cells are thawed and washed with HBSS, followed by resuspending cells in assay buffer (HBSS containing 0.1% bovine serum albumin, 0.5 mM isobutylmethylxanthine and 5 mM Hepes, pH 7.4) at the appropriate concentration for the assay. The cell suspensions are plated on 384-well microplates (Greiner Bio-One) at a density of 4,000 cells per well. After preincubating the cells with various concentrations of the compounds for 30 min at 25° C., an assay buffer containing EC90 concentration of agonist is added and the cells are incubated for 30 min at 25° C. Human urocortin2 (Peptide Institute) is used as agonists for CRHR2. For the termination of assay, europium-labeled cAMP tracer and ULight (registered trademark) dye labeled cAMP antibodies, both prepared with Lance-Ultra cAMP detection reagent (PerkinElmer) are added in the plate and incubate for 60 min at 25° C. After incubation, TR-FRET signal is detected by EnVision plate reader (PerkinElmer). The IC50 values for compounds are calculated from dose-response curves by fitting the percent inhibition using XLfit (ID Business Solutions).

For `O=C(N[C@H]1CC[C@H](CN2C(=O)C(O)(c3ccccc3F)c3ccc(F)cc32)CC1)c1cc(Cl)cnc1C(F)F` (stereo partly shown) [Example 83, 5-chloro-2-(difluoromethyl)-N-((1r,4r)-4-((6-fluoro-3-(2-fluorophenyl)-3-hydroxy-2-oxoindolin-1-yl)methyl)cyclohexyl) nicotinamide], the IC50 was less than 200 nM.

`Cc1ccc2c(c1)N(C[C@H]1CC[C@H](NC(=O)c3cc(Cl)cnc3C(F)F)CC1)C(=O)C2(O)c1ccccc1F` (stereo partly shown) [Example 148, 5-chloro-2-(difluoromethyl)-N-((1r,4r)-4-((3-(2-fluorophenyl)-3-hydroxy-6-methyl-2-oxoindolin-1-yl)methyl)cyclohexyl) nicotinamide] showed an IC50 of less than 200 nM.

`COc1ccc(F)c(C2(O)C(=O)N(C[C@H]3CC[C@H](NC(=O)c4cc(Cl)cnc4C(F)F)CC3)c3ccccc32)c1` (stereo partly shown) [Example 74, 5-chloro-2-(difluoromethyl)-N-((1r,4r)-4-((3-(2-fluoro-5-methoxyphenyl)-3-hydroxy-2-oxoindolin-1-yl)methyl)cyclohexyl) nicotinamide] was tested, and the IC50 was less than 200 nM.

In the case of `COc1cc(C2(O)C(=O)N(C[C@H]3CC[C@H](NC(=O)c4cc(Cl)cnc4C(F)F)CC3)c3cc(F)ccc32)c(F)cn1` (stereo partly shown) [Example 115, 5-chloro-2-(difluoromethyl)-N-((1r,4r)-4-((6-fluoro-3-(5-fluoro-2-methoxypyridin-4-yl)-3-hydroxy-2-oxoindolin-1-yl)methyl)cyclohexyl) nicotinamide], the IC50 is reported as less than 200 nM.

`Cc1cccc(C2(O)C(=O)N(C[C@H]3CC[C@H](NC(=O)c4cc(Cl)cnc4C(F)F)CC3)c3ccccc32)c1F` (stereo partly shown) [Example 63, 5-chloro-2-(difluoromethyl)-N-((1r,4r)-4-((3-(2-fluoro-3-methylphenyl)-3-hydroxy-2-oxoindolin-1-yl)methyl)cyclohexyl) nicotinamide] was tested, and the IC50 was less than 200 nM.

For `O=C(N[C@H]1CC[C@H](CN2C(=O)C(O)(c3cccc(F)c3F)c3c(F)cccc32)CC1)c1cc(Cl)cnc1C(F)F` (stereo partly shown) [Example 192, 5-chloro-2-(difluoromethyl)-N-((1r,4r)-4-((3-(2,3-difluorophenyl)-4-fluoro-3-hydroxy-2-oxoindolin-1-yl)methyl)cyclohexyl) nicotinamide], the IC50 was less than 200 nM.

For `O=C(N[C@H]1CC[C@H](CN2C(=O)C(O)(c3cccc(Cl)c3)c3ccccc32)CC1)c1cc(Cl)cnc1C(F)F` (stereo partly shown) [Example 48, 5-chloro-N-((1r,4r)-4-((3-(3-chlorophenyl)-3-hydroxy-2-oxoindolin-1-yl)methyl)cyclohexyl)-2-(difluoromethyl)nicotinamide], the IC50 was less than 200 nM.

Compound `COc1ccc(F)c(C2(O)C(=O)N(C[C@H]3CC[C@H](NC(=O)c4cc(Cl)cnc4C(F)(F)F)CC3)c3ccccc32)c1` (stereo partly shown) [Example 185, 5-chloro-N-((1r,4r)-4-((3-(2-fluoro-5-methoxyphenyl)-3-hydroxy-2-oxoindolin-1-yl)methyl)cyclohexyl)-2-(trifluoromethyl)nicotinamide] has an IC50 of less than 200 nM.

`O=C(N[C@H]1CC[C@H](CN2C(=O)C(O)(c3ccc(Cl)cn3)c3ccccc32)CC1)c1cc(Cl)cnc1C(F)F` (stereo partly shown) [Example 13, 5-chloro-N-((1r,4r)-4-((3-(5-chloropyridin-2-yl)-3-hydroxy-2-oxoindolin-1-yl)methyl)cyclohexyl)-2-(difluoromethyl)nicotinamide] showed an IC50 of less than 200 nM.

In the case of `O=C(N[C@H]1CC[C@H](CN2C(=O)C(O)(c3ccc(Cl)cn3)c3ccc(F)cc32)CC1)c1cc(Cl)cnc1C(F)F` (stereo partly shown) [Example 119, 5-chloro-N-((1r,4r)-4-((3-(5-chloropyridin-2-yl)-6-fluoro-3-hydroxy-2-oxoindolin-1-yl)methyl)cyclohexyl)-2-(difluoromethyl)nicotinamide], the IC50 is reported as less than 200 nM.

For `O=C(N[C@H]1CC[C@H](CN2C(=O)C(O)(c3ccccc3F)c3cccnc32)CC1)c1cc(Cl)cnc1C(F)F` (stereo partly shown) [Example 94, 5-chloro-2-(difluoromethyl)-N-((1r,4r)-4-((3-(2-fluorophenyl)-3-hydroxy-2-oxo-2,3-dihydro-1H-pyrrolo[2,3-b]pyridin-1-yl)methyl)cyclohexyl) nicotinamide], the IC50 was less than 200 nM.

Work on `O=C(N[C@H]1CC[C@H](CN2C(=O)C(O)(c3ccccc3F)c3cc(F)ccc32)CC1)c1cc(Cl)cnc1C(F)F` (stereo partly shown) [Example 93, 5-chloro-2-(difluoromethyl)-N-((1r,4r)-4-((5-fluoro-3-(2-fluorophenyl)-3-hydroxy-2-oxoindolin-1-yl)methyl)cyclohexyl) nicotinamide] yielded an IC50 of less than 200 nM.

`O=C(N[C@H]1CC[C@H](CN2C(=O)C(O)(c3cccc(Cl)c3F)c3ccccc32)CC1)c1cc(Cl)cnc1C(F)F` (stereo partly shown) [Example 67, 5-chloro-N-((1r,4r)-4-((3-(3-chloro-2-fluorophenyl)-3-hydroxy-2-oxoindolin-1-yl)methyl)cyclohexyl)-2-(difluoromethyl)nicotinamide] gave an IC50 of less than 200 nM.

With `O=C(N[C@H]1CC[C@H](CN2C(=O)C(O)(c3cc(F)ccc3F)c3ccccc32)CC1)c1cc(Cl)cnc1C(F)F` (stereo partly shown) [Example 58, 5-chloro-2-(difluoromethyl)-N-((1r,4r)-4-((3-(2,5-difluorophenyl)-3-hydroxy-2-oxoindolin-1-yl)methyl)cyclohexyl) nicotinamide] the IC50 was less than 200 nM.

Compound `O=C(N[C@H]1CC[C@H](CN2C(=O)C(O)(c3sccc3F)c3ccccc32)CC1)c1cc(Cl)cnc1C(F)F` (stereo partly shown) [Example 95, 5-chloro-2-(difluoromethyl)-N-((1r,4r)-4-((3-(3-fluorothiophen-2-yl)-3-hydroxy-2-oxoindolin-1-yl)methyl)cyclohexyl) nicotinamide] has an IC50 of less than 200 nM.

Compound `O=C(N[C@H]1CC[C@H](CN2C(=O)C(O)(c3ccccc3)c3ccccc32)CC1)c1cc(Cl)cnc1C(F)F` (stereo partly shown) [Example 3, 5-chloro-2-(difluoromethyl)-N-((1r,4r)-4-((3-hydroxy-2-oxo-3-phenylindolin-1-yl)methyl)cyclohexyl) nicotinamide] has an IC50 of less than 200 nM.

`COc1ccc(F)c(C2(O)C(=O)N(C[C@H]3CC[C@H](NC(=O)c4cc(Cl)cnc4C(F)F)CC3)c3cc(F)ccc32)c1` (stereo partly shown) [Example 156, 5-chloro-2-(difluoromethyl)-N-((1r,4r)-4-((6-fluoro-3-(2-fluoro-5-methoxyphenyl)-3-hydroxy-2-oxoindolin-1-yl)methyl)cyclohexyl) nicotinamide] showed an IC50 of less than 200 nM.

In the case of `O=C(N[C@H]1CC[C@H](CN2C(=O)C(O)(c3ccc(F)cn3)c3ccccc32)CC1)c1cc(Cl)cnc1C(F)F` (stereo partly shown) [Example 18, 5-chloro-2-(difluoromethyl)-N-((1r,4r)-4-((3-(5-fluoropyridin-2-yl)-3-hydroxy-2-oxoindolin-1-yl)methyl)cyclohexyl) nicotinamide], the IC50 is reported as less than 200 nM.

`O=C(N[C@H]1CC[C@H](CN2C(=O)C(O)(c3cccc(Cl)c3F)c3ccc(F)cc32)CC1)c1cc(Cl)cnc1C(F)F` (stereo partly shown) [Example 117, 5-chloro-N-((1r,4r)-4-((3-(3-chloro-2-fluorophenyl)-6-fluoro-3-hydroxy-2-oxoindolin-1-yl)methyl)cyclohexyl)-2-(difluoromethyl)nicotinamide] showed an IC50 of less than 200 nM.

For `COc1ccc(F)c(C2(O)C(=O)N(C[C@H]3CC[C@H](NC(=O)c4cc(Cl)cnc4C)CC3)c3ccccc32)c1` (stereo partly shown) [Example 128, 5-chloro-N-((1r,4r)-4-((3-(2-fluoro-5-methoxyphenyl)-3-hydroxy-2-oxoindolin-1-yl)methyl)cyclohexyl)-2-methylnicotinamide], the IC50 was less than 200 nM.

`COc1ccc(F)c(C2(O)C(=O)N(C[C@H]3CC[C@H](NC(=O)c4cc(Cl)cnc4C(F)F)CC3)c3cccc(F)c32)c1` (stereo partly shown) [Example 189, 5-chloro-2-(difluoromethyl)-N-((1r,4r)-4-((4-fluoro-3-(2-fluoro-5-methoxyphenyl)-3-hydroxy-2-oxoindolin-1-yl)methyl)cyclohexyl) nicotinamide] showed an IC50 of less than 200 nM.

`O=C(N[C@H]1CC[C@H](CN2C(=O)C(O)(c3cc(F)cs3)c3ccccc32)CC1)c1cc(Cl)cnc1C(F)F` (stereo partly shown) [Example 98, 5-chloro-2-(difluoromethyl)-N-((1r,4r)-4-((3-(4-fluorothiophen-2-yl)-3-hydroxy-2-oxoindolin-1-yl)methyl)cyclohexyl) nicotinamide] gave an IC50 of less than 200 nM.
